Here are results for 19 molecules from paper PMC12472749, “Balsalazide-Derived Heterotriaryls as Sirtuin 5 Inhibitors: A Case Study of a Reversible Covalent Inhibition Strategy” (Molecules, 2025).

Structures are written as SMILES. “And” between values parts separate entries of the source, which are not always exact repeats. Identical values can stand only once.

Usually IC50 stands for the concentration that inhibits the measured activity by half.

The target in one assay is T1, hSirt5 (Homo sapiens, UniProt Q9NXA8).
T1 construct: comprised amino acids 37–310 (C-terminal region); His-tag (N); purchased Reaction Biology Corporation (Malvern, PA, USA); host or cells: Escherichia coli
T1 sequence (Q9NXA8 37-310): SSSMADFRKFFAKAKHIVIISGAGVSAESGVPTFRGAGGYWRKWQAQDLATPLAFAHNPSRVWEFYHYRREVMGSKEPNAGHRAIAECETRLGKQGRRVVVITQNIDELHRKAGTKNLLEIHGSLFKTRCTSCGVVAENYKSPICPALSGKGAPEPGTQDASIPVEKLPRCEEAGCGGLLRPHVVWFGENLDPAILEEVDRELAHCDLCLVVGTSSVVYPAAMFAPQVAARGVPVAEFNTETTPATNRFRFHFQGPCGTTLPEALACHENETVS
The assay is described as follows: fluorescence-based sirtuin 5 assay (Reaction Biology) with substrate Ac-Lys-succ-AMC and NAD+. The conditions noted are these: recombinant sirtuin 5 aa 37-310, 50 µM Ac-Lys-succ-AMC, 10-dose 3-fold dilution, mean of three measurements; read-out: IC50 (hSirt5) [µM] ± SD. The format is biochemical. How it is done:
The synthesized cyclic boronate, cyanomethyl and formylmethyl derivatives of CG_209 and CG_220 were tested for their inhibitory effects against sirtuin 5 using a fluorescence-based assay utilizing a 7-amino-4-methyl coumarin-based succinylated lysine as its substrate. The IC50 values of these compounds were calculated as a mean of three measurements (Table 2). […] Significant loss in the potency of the boronates 51–54 could be observed compared to their lead structures CG_209 and CG_220.
The inhibitory activities of the synthesized target compounds were determined by Reaction Biology Corporation (Malvern, PA, USA) using a fluorescence-based assay. The sirtuin 5 enzyme utilized in this assay was produced in-house by Reaction Biology. The enzyme construct (accession number: NM_012241) comprised amino acids 37–310 (C-terminal region), carried an N-terminal His-tag and was expressed in Escherichia coli. The recombinant protein was purified to >95% purity, as confirmed by SDS-PAGE, and supplied in a solution containing 50 mM Tris-HCl (pH 8.0), 137 mM NaCl, 2.7 mM KCl, 1 mM MgCl2, 1 mg/mL BSA, and 1% DMSO with a protein concentration of 19 nM. Test compounds were prepared at a concentration of 10 mM in DMSO and incubated with 5 µL sirtuin 5 in the assay buffer per well at 30 °C for 10 min in a concentration range between 5 nM and 0.1 mM. 5 µL assay buffer without sirtuin 5 were used for control wells. The deacylation reaction was initiated by the addition of 5 µL substrate mixture comprising 50 µM fluorogenic substrate Ac-Lys-succ-AMC and the co-factor NAD^+. After a 2 h incubation at 30 °C, the reaction was terminated by adding 10 µL protease-based developer with 4 mM nicotinamide, which cleaves 7-amino-4-methylcoumarin to yield a fluorescent signal. Fluorescence was measured after an additional 1 h incubation at 30 °C, with excitation/emission wavelengths of 360/460 nm with EnVision® Plate Reader (Revvity, Waltham, MA, USA). To standardize results, a no-inhibitor control representing 100% enzyme activity was included in all assays. IC50 values for sirtuin 5 inhibition were determined in triplicate using a 10-dose, 3-fold serial dilution series. For each replicate, individual IC50 values were calculated by fitting sigmoidal dose–response curves using Prism 8.0.2 software (GraphPad Software, Boston, MA, USA). The final IC50 values are reported as the mean ± standard deviation of the triplicate measurements.
Regarding `O=C(O)CCNC(=O)c1ccc(-c2cc(-c3ccc(O)c(C(=O)O)c3)no2)cc1` [CG_209], the IC50 turned out to be 11 ± 1 µM.
Consider `O=C(O)CCNC(=O)c1ccc(-c2cn(-c3ccc(O)c(C(=O)O)c3)nn2)cc1` [CG_220], for which the IC50 was found to be 9 ± 2 µM.
Consider `N#CC[C@H](CC(=O)O)NC(=O)c1ccc(-c2cc(-c3ccc(O)c(C(=O)O)c3)no2)cc1` [Compound 47, (R)-5-(5-(4-((1-Carboxy-3-cyanopropan-2-yl)carbamoyl)phenyl)isoxazol-3-yl)-2-hydroxybenzoic acid], for which the IC50 is 97 ± 22 µM.
Still for that read-out and setting: for `N#CC[C@@H](CC(=O)O)NC(=O)c1ccc(-c2cc(-c3ccc(O)c(C(=O)O)c3)no2)cc1` [Compound 48, (S)-5-(5-(4-((1-Carboxy-3-cyanopropan-2-yl)carbamoyl)phenyl)isoxazol-3-yl)-2-hydroxybenzoic acid] the value was 65 ± 15 µM; for `N#CC[C@H](CC(=O)O)NC(=O)c1ccc(-c2cn(-c3ccc(O)c(C(=O)O)c3)nn2)cc1` [Compound 49, (R)-5-(4-(4-((1-Carboxy-3-cyanopropan-2-yl)carbamoyl)phenyl)-1H-1,2,3-triazol-1-yl)-2-hydroxybenzoic acid], 35 ± 6 µM.
For `N#CC[C@@H](CC(=O)O)NC(=O)c1ccc(-c2cn(-c3ccc(O)c(C(=O)O)c3)nn2)cc1` [Compound 50, (S)-5-(4-(4-((1-Carboxy-3-cyanopropan-2-yl)carbamoyl)phenyl)-1H-1,2,3-triazol-1-yl)-2-hydroxybenzoic acid], the IC50 came out at 27 ± 9 µM.
The same measure, in the same setting: for `CC1(C)OC(=O)c2cc(-c3cc(-c4ccc(C5=N[C@@H](CC(=O)O)CB(O)O5)cc4)on3)ccc2O1` [Compound 51, (R)-2-(6-(4-(3-(2,2-Dimethyl-4-oxo-4H-benzo[d][1,3]dioxin-6-yl)isoxazol-5-yl)phenyl)-2-hydroxy-3,4-dihydro-2H-1,5,2-oxazaborinin-4-yl)acetic acid] the value was 203 ± 50 µM; for `CC1(C)OC(=O)c2cc(-c3cc(-c4ccc(C5=N[C@H](CC(=O)O)CB(O)O5)cc4)on3)ccc2O1` [Compound 52, (S)-2-(6-(4-(3-(2,2-Dimethyl-4-oxo-4H-benzo[d][1,3]dioxin-6-yl)isoxazol-5-yl)phenyl)-2-hydroxy-3,4-dihydro-2H-1,5,2-oxazaborinin-4-yl)acetic acid], 139 ± 18 µM.
`CC1(C)OC(=O)c2cc(-n3cc(-c4ccc(C5=N[C@@H](CC(=O)O)CB(O)O5)cc4)nn3)ccc2O1` [Compound 53, (R)-2-(6-(4-(1-(2,2-Dimethyl-4-oxo-4H-benzo[d][1,3]dioxin-6-yl)-1H-1,2,3-triazol-4-yl)phenyl)-2-hydroxy-3,4-dihydro-2H-1,5,2-oxazaborinin-4-yl)acetic acid]: the concentration for half-maximal inhibition (IC50) came out at 137 ± 63 µM.
On the same count and under the same terms, for `CC1(C)OC(=O)c2cc(-n3cc(-c4ccc(C5=N[C@H](CC(=O)O)CB(O)O5)cc4)nn3)ccc2O1` [Compound 54, (S)-2-(6-(4-(1-(2,2-Dimethyl-4-oxo-4H-benzo[d][1,3]dioxin-6-yl)-1H-1,2,3-triazol-4-yl)phenyl)-2-hydroxy-3,4-dihydro-2H-1,5,2-oxazaborinin-4-yl)acetic acid] the value was 61 ± 9 µM.
On the same count and under the same terms, then `O=CCC(CC(=O)O)NC(=O)c1ccc(-c2cc(-c3ccc(O)c(C(=O)O)c3)no2)cc1` (stereo not drawn) [Compound 61, 5-(5-(4-((1-Carboxy-4-oxobutan-2-yl)carbamoyl)phenyl)isoxazol-3-yl)-2-hydroxybenzoic acid], with 82 ± 3 µM; and `O=CCC(CC(=O)O)NC(=O)c1ccc(-c2cn(-c3ccc(O)c(C(=O)O)c3)nn2)cc1` (stereo not drawn) [Compound 64, 5-(4-(4-((1-Carboxy-4-oxobutan-2-yl)carbamoyl)phenyl)-1H-1,2,3-triazol-1-yl)-2-hydroxybenzoic acid], with 60 ± 15 µM.

The subject of a further assay is sirtuin 5.
Assay: not given
The following applies: Figure 1, high-throughput screening hits; read-out: IC50 (published sirtuin 5 inhibitor); cited from earlier work.
With `O=C1c2c(O)cccc2Cc2cccc(O)c21` [Anthralin, anthralin], the IC50 was 0.1 µM.
`O=C(O)CCNC(=O)c1ccc(/N=N/c2ccc(O)c(C(=O)O)c2)cc1` [Balsalazide, balsalazide]: the IC50 was 3.9 µM.
Consider `C=C1c2cccc(O)c2C(=O)C2=C(O)[C@]3(O)C(=O)C(C(N)=O)=C(O)[C@@H](N(C)C)[C@@H]3[C@@H](O)[C@H]12` [Methacycline, methacycline], for which the IC50 is 3.6 µM.

Still in this assay, the particulars now being: Figure 1; read-out: IC50 (published sirtuin 5 inhibitor); cited from earlier work.
As to `O=c1[nH]c(=S)[nH]c(-c2ccccc2)c1Cc1c(O)ccc2ccccc12` [Cambinol, cambinol], the IC50 was 43 µM.
`O=C1Nc2ccc(I)cc2/C1=C/c1cc(Br)c(O)c(Br)c1` [GW5074]: the IC50 is 20 µM.
`N#C/C(=C\c1ccc(-c2ccc(C(=O)O)cc2)o1)C(=O)Nc1ccc(C#N)c(F)c1` [Liu compound 37]: the IC50 is 5.6 µM.
`C=CCN1C(=O)/C(=C\c2ccc(-c3cccc(Cl)c3Cl)o2)C(=O)NC1=S` [Maurer compound 2]: the IC50 was 2.3 µM.

The same assay, now with this note: published values of the lead structures; read-out: IC50 (published values of lead structures); cited from earlier work.
For the molecule `O=C(O)CCNC(=O)c1ccc(-c2cc(-c3ccc(O)c(C(=O)O)c3)no2)cc1` [CG_209], the IC50 was 12 µM.
As to `O=C(O)CCNC(=O)c1ccc(-c2cn(-c3ccc(O)c(C(=O)O)c3)nn2)cc1` [CG_220], the IC50 was 7 µM and 7.4 µM.
